Results published in patent publication US9469645B2, “Compounds and compositions for the treatment of parasitic diseases” (Novartis AG, priority 2009, dated 2016).
Read-outs that look alike come from different tables or passages of the source.

Legend:
3D7 P. falciparum strain = assay: parasite proliferation assay in infected red blood cells (SYBR Green I); assay type: cell-based, Plasmodium falciparum; settings: 3D7 strain, read-out: EC50 3D7 strain
Text: (§1) Compounds of the invention can be assayed to measure their capacity to inhibit proliferation of parasitemia in infected red blood cells. The proliferation is quantified by the addition of SYBR Green I (INVITROGEN)® dye which has a high affinity for double stranded DNA.
The following assay illustrates the invention without in any way limiting the scope of the invention. This parasite proliferation assay measures the increase in parasite DNA content using a DNA intercalating dye, SYBR Green®.
3D7 P. falciparum strain is grown in complete culturing media until parasitemia reaches 3% to 8% with O+ human erythrocytes. 20 μl of screening media is dispensed into 384 well assay plates. […] 10 μl of lysis buffer (saponin, triton-X, EDTA) containing a 10× solution of SYBR Green I® in RPMI media is dispensed into the plates. The plates are lidded and kept at room temperature overnight for the lysis of the infected red blood cells.

W2 strain = assay: parasite proliferation assay in infected red blood cells (SYBR Green I), W2 strain; assay type: cell-based
Text: as §1

[1] = Plasmodium falciparum, 3D7, Erythrocyte
[2] = Plasmodium falciparum, Erythrocyte

| SMILES | EC50 (3D7 P. falciparum strain; [1]) [nM] | EC50 (W2 strain; [2]) [nM] | EC50 (W2 strain; Erythrocyte) [nM] | EC50 (3D7 P. falciparum strain) [nM] | EC50 (W2 strain) [nM] |
| --- | --- | --- | --- | --- | --- |
| CC1(C)c2nc(-c3ccc(F)cc3)c(Sc3cccc(F)c3)n2CCN1C(=O)CN [Compound 714] | 7 | 4 | – | – | – |
| Cc1ccc(Nc2c(-c3ccc(F)cc3)nc3n2CCN(Cc2ccc(N4CCOCC4)cc2)C3)cc1 [Compound 180] | 730 | – | 609 | – | – |
| CCCCCNC(=O)C[C@H](N)C(=O)N1CCn2c(nc(-c3cccc(F)c3)c2Nc2ccc(F)cc2)C1 [Compound 257] | 6680 | – | 7000 | – | – |
| CC(O)CN[C@@H](Cc1ccccc1)C(=O)N1CCn2c(nc(-c3ccc(F)cc3)c2Nc2ccc(Cl)c(F)c2)C1 (stereo partly drawn) [Compound 281] | 820 | – | 596 | – | – |
| CC1(C)NC(=O)Cn2c1nc(-c1cccc(F)c1)c2Nc1ccc(Cl)c(F)c1 [Compound 605] | 40 | 57 | – | – | – |
| CCCCCNc1ccc(C[C@H](NC(=O)OC(C)(C)C)C(=O)N2CCn3c(nc(-c4ccc(F)cc4)c3Nc3ccc(C)cc3)C2)cc1 [Compound 267, (S)-tert-butyl 1-(2-(4-fluorophenyl)-3-(p-tolylamino)-5,6-dihydroimidazo[1,2-a]pyrazin-7 (8H)-yl)-1-oxo-3-(4-(pentylamino)phenyl)propan-2-ylcarbamate] | 990 | – | 474 | – | – |
| Cc1ccc(Nc2c(-c3ccc(F)cc3)nc3n2CCN(C(=O)[C@@H](N)Cc2ccc(CN)cc2)C3)cc1 [Compound 213] | 3800 | – | 4820 | – | – |
| Cc1cc(Nc2c(-c3cccc(F)c3)nc3n2CC(=O)N(CCCN)C3(C)C)ccc1F [Compound 689] | 512 | 295 | – | – | – |
| O=C(CN1CCC(F)(F)CC1)N1CCn2c(nc(-c3ccc(F)cc3)c2Nc2ccc(F)cc2)C1 [Compound 62] | 4740 | – | 4740 | – | – |
| NCC(=O)N1CCn2c(nc(-c3ccc(F)cc3)c2Nc2ccc(C(F)(F)F)cc2)C1 [Compound 73] | 80 | – | 59 | – | – |
| Cc1cc(Nc2c(-c3cccc(F)c3)nc3n2C(C)(C)CN(C(=O)CN)C3)ccc1Cl [Compound 626] | 20 | 17 | – | – | – |
| Cc1ccc(Nc2c(-c3ccc(F)cc3)nc3n2CCN(C(=O)C2CCNC2)C3)cc1 (stereo not drawn) [Compound 95] | – | – | – | 1540 | 707 |
| Cc1ccc(Nc2c(-c3ccc(F)cc3)nc3n2CCN(C(=O)[C@@H](N)CS(C)(=O)=O)C3)cc1 [Compound 288] | 890 | – | 1390 | – | – |
| CC(C)(N)C(=O)N1CCn2c(nc(-c3ccc(F)cc3)c2NC2CCCCC2)C1 [Compound 27] | 9610 | – | 5980 | – | – |
| CCC(=O)Nc1ccc(C[C@H](NC(=O)OC(C)(C)C)C(=O)N2CCn3c(nc(-c4cccc(F)c4)c3Nc3ccc(Cl)c(F)c3)C2)cc1 [Compound 253] | 780 | – | 254 | – | – |
| O=C(CN1CCS(=O)(=O)CC1)N1CCn2c(nc(-c3ccc(F)cc3)c2Nc2ccc(F)cc2)C1 [Compound 42] | 6100 | – | 4610 | – | – |
| Cc1ccc(Nc2c(-c3ccc(F)cc3)nc3n2CCN(C(=O)[C@@H](N)Cc2ccc(N)cc2)C3)cc1 [Compound 157] | 100 | – | 97 | – | – |
| Cc1ccc(Nc2c(-c3ccc(F)cc3)nc3n2CCNC3)cc1 [Example 113, 2-(4-fluorophenyl)-N-p-tolyl-5,6,7,8-tetrahydroimidazo[1,2-a]pyrazin-3-amine] | 150 | – | 146 | – | – |
| Cc1ccc(Nc2c(-c3ccc(F)cc3)nc3n2CCN(C(=O)C(O)c2ccc(C(F)(F)F)cc2)C3)cc1 (stereo not drawn) [Compound 127] | 60 | – | 51 | – | – |
| CC(C)(N)C(=O)N1CCn2c(nc(-c3ccc(F)cc3)c2Nc2ccc(C#N)c(C(F)(F)F)c2)C1 [Compound 635] | 940 | 1760 | – | – | – |
| CCCNC(=O)C[C@H](N)C(=O)N1CCn2c(nc(-c3ccc(F)cc3)c2Nc2ccc(C)cc2)C1 [Compound 189] | 370 | – | 392 | – | – |
| CCCC(=O)NCCCC[C@H](N)C(=O)N1CCn2c(nc(-c3ccc(F)cc3)c2Nc2ccc(C)cc2)C1 [Compound 158] | 7540 | – | 4760 | – | – |
| CC1(C)c2nc(-c3ccc(F)cc3)c([S+]([O-])c3ccc(F)c(F)c3)n2CCN1C(=O)CN (stereo not drawn) [Compound 723] | 89 | 68 | – | – | – |
| NC(C(=O)N1CCn2c(nc(-c3ccc(F)cc3)c2Nc2ccc(Cl)c(F)c2)C1)c1ccc(Cl)c(Cl)c1 (stereo not drawn) [Compound 365] | 610 | – | 260 | – | – |
| Cc1ccc(Nc2c(-c3ccc(F)cc3)nc3n2CCN(C(=O)[C@@H](N)CO)C3)cc1 [Compound 163] | 20 | – | 26 | – | – |
| CC1(C)c2nc(-c3ccc(F)cc3)cn2CCN1C(=O)C(N)CCc1ccc(Cl)cc1 (stereo not drawn) [Compound 702] | 6030 | 5850 | – | – | – |
| Cc1ccc(Nc2c(-c3ccc(F)cc3)nc3n2CCN(C(=O)[C@H](N)CO)C3)cc1 [Compound 284] | 50 | – | 37 | – | – |

| SMILES | EC50 (3D7 P. falciparum strain; [1]) [nM] | EC50 (W2 strain; [2]) [nM] | EC50 (W2 strain; Erythrocyte) [nM] | EC50 (3D7 P. falciparum strain) [nM] | EC50 (W2 strain) [nM] |
| --- | --- | --- | --- | --- | --- |
| CC1(C)c2nc(-c3ccc(F)cc3)c(NC3CCOCC3)n2CCN1C(=O)CN [Compound 672] | 9840 | 7140 | – | – | – |
| Cc1ccc(Nc2c(-c3ccc(F)cc3)nc3n2CCN(C(=O)C(O)c2ccc(Cl)cc2)C3)cc1 (stereo not drawn) [Compound 133] | 50 | – | 39 | – | – |
| Cc1ccc(Nc2c(-c3ccc(F)cc3)nc3n2CCN(C(=O)C(C)Oc2ccccc2)C3)cc1 (stereo not drawn) [Compound 202] | 160 | – | 102 | – | – |
| CC(C)(O)CC(=O)N1CCn2c(nc(-c3cccc(F)c3)c2Nc2ccc(F)cc2)C1 [Compound 235] | 540 | – | 496 | – | – |
| CC(C)(N)C(=O)N1CCn2c(nc(-c3ccc(F)cc3)c2Nc2ccc(F)cc2)C1 [Compound 3] | 20 | – | 25 | – | – |
| CN(C)CCN1C(=O)Cn2c(nc(-c3ccc(F)cc3)c2Nc2ccc(Cl)c(F)c2)C1(C)C [Compound 685] | 173 | 131 | – | – | – |
| CCN(CC)c1ccc(CN2CCn3c(nc(-c4ccc(F)cc4)c3Nc3ccc(C)cc3)C2)cc1 [Compound 182] | 1370 | – | 1080 | – | – |
| CC1(C)N=C2c3nc(-c4ccc(F)cc4)c(Nc4ccc(F)c(F)c4)n3CCN2C1=O [Compound 645, 8-(3,4-difluorophenylamino)-9-(4-fluorophenyl)-2,2-dimethyl-5,6-dihydrodiimidazo[1,2-a:2′,1′-c]pyrazin-3 (2H)-one] | 5130 | 7600 | – | – | – |
| Cc1ccc(Nc2c(-c3ccc(F)cc3)nc3n2CCN(C(=O)C2CCCNC2)C3)cc1 (stereo not drawn) [Compound 93] | – | – | – | 1670 | 1510 |
| CCCCCc1ccc(-c2nc3n(c2Nc2ccc(F)cc2)CCN(C(=O)C(C)(C)N)C3)cc1 [Compound 14] | 3590 | – | 5870 | – | – |
| Cc1ccc(Nc2c(-c3ccc(F)cc3)nc3n2CCN(C(=O)[C@H](C)N(C)Cc2ccccc2)C3)cc1 [Compound 388] | 3220 | – | 1770 | – | – |
| Cc1ccc(Nc2c(-c3cccc(Cl)c3)nc3n2CCN(C(=O)CN)C3)cc1 [Compound 383] | 50 | – | 32 | – | – |
| Cc1ccc(Nc2c(-c3ccc(F)cc3)nc3n2CCN(C(=O)CNC(=N)N)C3)cc1 [Compound 167] | 180 | – | 145 | – | – |
| O=C([C@H]1CCCO1)N1CCn2c(nc(-c3ccc(F)cc3)c2Nc2ccc(Cl)c(F)c2)C1 [Compound 356] | 1260 | – | 872 | – | – |
| Cc1ccc(Nc2c(-c3ccc(F)cc3)nc3n2CCN(C(=O)CC2CCCO2)C3)cc1 (stereo not drawn) [Compound 211] | 300 | – | 283 | – | – |
| Cc1cc(Nc2c(-c3ccc(F)cc3)nc3n2C(C)(C)C(=O)N(C)C3)ccc1Cl [Compound 616] | 5720 | 4560 | – | – | – |
| Cc1ccc(Nc2c(-c3ccc(F)cc3)nc3n2CCN(C(=O)C2(N)CCCC2)C3)cc1 [Compound 140] | 90 | – | 128 | – | – |
| Cc1cc(Nc2c(-c3ccc(F)cc3)nc3n2CC(=O)N(CCN(C)C)C3(C)C)ccc1Cl [Compound 684] | 30 | 17 | – | – | – |
| CC1CCCCC1Nc1c(-c2ccc(F)cc2)nc2n1CCN(C(=O)CN)C2(C)C (stereo not drawn) [Compound 664] | 3690 | 4080 | – | – | – |
| Cc1ccc(Nc2c(-c3ccc(F)cc3)nc3n2CCN(C(=O)[C@H](N)c2ccccc2)C3)cc1 [Compound 97] | 40 | – | 21 | – | – |
| CC(C)(N)C(=O)N1CCn2c(nc(-c3ccc(F)cc3)c2Nc2ccc(F)c(C(F)(F)F)c2)C1 [Compound 634] | 467 | 447 | – | – | – |
| CC(C)(C)OC(=O)N[C@@H](CC(=O)O)C(=O)N1CCn2c(nc(-c3cccc(F)c3)c2Nc2ccc(F)cc2)C1 [Compound 241] | 5270 | – | 2360 | – | – |
| COc1ccc(Cc2c(-c3ccc(F)cc3)nc3n2CCN(C(=O)CN)C3(C)C)cc1 [Compound 695, 2-amino-1-(2-(4-fluorophenyl)-3-(4-methoxybenzyl)-8,8-dimethyl-5,6-dihydroimidazol[1,2-a]pyrazin-7(8H)-yl)ethanone] | 17 | 19 | – | – | – |
| Fc1ccc(Nc2c(-c3ccc(F)cc3)nc3cnccn23)cc1 [Example 26, N,2-bis(4-fluorophenyl)imidazo[1,2-a]pyrazin-3-amine] | > 10000 | – | 5520 | – | – |
| O=C(C1CNCCO1)N1CCn2c(nc(-c3ccc(F)cc3)c2Nc2ccc(Cl)c(F)c2)C1 (stereo not drawn) [Compound 367] | 190 | – | 148 | – | – |
| Cc1cc(Nc2c(-c3ccc(F)cc3)nc3n2CCN(C(=O)C(C)(C)N)C3)ccc1F [Compound 628] | 33 | 40 | – | – | – |
| CC1(C)c2nc(-c3ccc(F)cc3)c([S+]([O-])c3ccc(Cl)cc3)n2CCN1C(=O)CN (stereo not drawn) [Compound 724] | 509 | 287 | – | – | – |
